How the values were obtained:
[1] = biological target: T1, insulin disulfides (heterodimeric insulin) (Homo sapiens, UniProt P01308); experiment: single-turnover insulin protein disulfide reduction assay (RP-HPLC of insulin heterodimer peak); assay type: biochemical; settings: relative GSH:TRX concentrations comparable to the airway, pH 8, FIG. 1
T1 construct: fully disulfide-bonded heterodimeric insulin
Description: Left side of FIG. 1—polyacrylamide gel electrophoresis of native human thioredoxin-1 (TRX). Lane 1: Molecular weight standards; Lane 2: Oxidized TRX; Lane 3: Oxidized TRX following reaction with dithiothreitol (DTT); Lane 4: Oxidized TRX following reaction with reduced glutathione (GSH); Lane 5: Oxidized TRX following reaction with GSH followed by DTT. Right side of FIG. 1—TRX was oxidized by exposure to ambient air for one week then incubated with either DTT or GSH at pH 8 for 1 hour followed by purification over a size exclusion column to remove unreacted free DTT or GSH after which the TRX was collected and used in a single-turnover insulin protein-disulfide reduction assay. […] After 30 min, 60 min and 120 minutes aliquots were taken and diluted with 0.1% TFA and 17 uM (final) iodoacetic acid and analyzed over RP-HPLC. Absorbance was monitored at 214 nm and the peak area of the insulin heterodimer fraction was determined at each time point to quantify TRX protein disulfide-reducing activity.
C35STRX was oxidized and Lys residues were conjugated to an azido-PEG linker. The conjugated material was then reduced and tested for molecular weight using SDS-PAGE (FIG. 5D) and MALDI-TOF (FIG. 5E) and activity assessed using a single-turnover insulin protein disulfide reduction assay. […]

[2] = inhalation vs. i.v.; cited from earlier work

T1 sequence (P01308 25-54 limits assumed): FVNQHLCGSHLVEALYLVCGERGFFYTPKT
T1 sequence (P01308 90-110 limits assumed): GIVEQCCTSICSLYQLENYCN

| SMILES | restoration of insulin disulfide bond reduction activity to oxidized TRX [1] | systemic exposure level by inhalation delivery relative to equivalent i.v. [2] [%] |
| --- | --- | --- |
| N[C@@H](CCC(=O)N[C@@H](CS)C(=O)NCC(=O)O)C(=O)O [GSH, reduced glutathione, reference compound] | capable of restoring insulin disulfide bond reduction activity to oxidized TRX |  |
| CN[C@H](CC(C)C)C(=O)N[C@H]1C(=O)N[C@@H](CC(N)=O)C(=O)N[C@H]2C(=O)N[C@H]3C(=O)N[C@H](C(=O)N[C@H](C(=O)O)c4cc(O)cc(O)c4-c4cc3ccc4O)[C@H](O)c3ccc(c(Cl)c3)Oc3cc2cc(c3O[C@@H]2O[C@H](CO)[C@@H](O)[C@H](O)[C@H]2O[C@H]2C[C@](C)(N)[C@H](O)[C@H](C)O2)Oc2ccc(cc2Cl)[C@H]1O [vancomycin] |  | ~50 |

Reference: US20210213134A1, “THIOL-BASED MULTIVALENT DRUG DELIVERY COMPOSITIONS” (ORPRO THERAPEUTICS, INC., priority 2018, published 2021)
